Read-outs that look alike come from different tables or passages of the source.

The nature of series [1]: Metabolite profiling in rat bile, urine and feces (radio-HPLC, LC-HRMS). It counts as in vivo. The conditions noted are these: for %rad in feces: pooled feces. Here is the method: Tissue homogenate samples at 24 hours were extracted as plasma samples. […] The pooled urine samples containing 10% MeOH were analyzed by liquid chromatography-high resolution mass spectrometry (LC-HRMS).
The pooled bile sample containing 10% MeOH was analyzed by LC-HRMS.
Feces samples obtained from BDC and intact rats were pooled separately across time intervals for each animal (5% w/v) and further pooled across animals for each group to generate a 0–68 hour pooled sample. Approximately 1–2 g of each pooled feces sample was extracted as the same protocol used for plasma samples. […] The reconstituted samples were analyzed by LC-HRMS.
The reconstituted samples were analyzed by LC-HRMS, with eluent fractions collected at 10-second intervals into 96-well plates containing solid scintillant. Radioactivity in each well was determined using TopCount analysis, and radiochemical profiles were generated based on radioactivity counts. Structural elucidation was performed based on mass spectral interpretation to identify metabolites.
For metabolite profiling and identification, LC-MS analysis used a Shimadzu/Nexera LC-30 AD liquid chromatographic system and a ThermoFisher Scientific Q Exactive with a positive/negative heated electrospray interface. The column was a Waters XSelect HSS T3 4.6 mm × 250 mm, 3.5 µm and maintained at 40 °C. The mobile phases were (A) 20 mM ammonium acetate in water and (B) acetonitrile. […] The flow was 1 mL/min and split 20% to mass analysis and 80% collected for radioactivity counting. Mass spectrometry data was acquired with full scans at a resolution of 70,000 for a m/z range of 300 to 1500, and MS/MS scans were acquired at a resolution of 17,500. The mass spectrometer was operated with a normalized collision energy of 30 (ESI+), S-Lens RF level of 60, source voltage of +3.5 kV, Capillary temperature of 320 °C, and Probe heater temperature of 300 °C.

For series [2] the following is noted: human, 3 h, 5 µM.
Experimental: (§1) Hepatocyte cell count was ~1.1–1.8 × 10^6 cells/mL. After 3 h, samples were quenched with 3 volumes of acetonitrile, vortex mixed, and centrifuged. The supernatant (5 µL) was analyzed by LC-MS using a Kinetex EVO C18 column (1.7 μm, 2.1 × 150 mm) at 40 °C with a flow rate of 0.4 mL/min. Mobile phase A was 20 mM ammonium acetate in water, and mobile phase B was acetonitrile. The column was initially held at 5% B for 2 min, increased to 75% B over 33 minutes, and then increased to 95% B over 3 min, where it was maintained for 3 minutes before returning to 5% B over 0.5 min for re-equilibration. Mass spectrometry data was acquired using positive ion mode and data-dependent MS^2 acquisition.
For series [3] the following is noted: male, Wistar Han, rat, 3 h, 5 µM.
Experimental: as §1
Series [4] is described as follows: Protein binding by equilibrium dialysis (plasma, tissue homogenates, DPBS). It counts as in vitro ADME, rat. The conditions noted are these: rat, plasma. Here is the method:
Control plasma was purchased from BioIVT, Hicksville, New York. Pooled plasma was obtained from at least three rats with K2EDTA as the anticoagulant. Control plasma was used to test the suitability of the system and for positive control analysis. Dulbecco’s phosphate-buffered saline (DPBS) (Millipore Sigma, St Louis, Missouri) was used to test the suitability of the system and as the receiver side of the dialysis device. […] The stock solution was added to the matrix (plasma or DPBS) and swirled to mix. The fortified matrix was then incubated at 37 °C for 15 min. Triplicate aliquots of the fortified matrix were analyzed by LSC.
The high throughput dialysis apparatus, model HTD96b, was used (HTDialysis LLC, Gales Ferry, Connecticut). Prior to assembly, dialysis membrane strips (molecular weight cutoff of 6–8 kDa) were hydrated, and the Teflon bars were assembled according to manufacturer’s instructions, with dialysis membrane strips laid between bars creating two compartments per well. The assembled unit was locked in place in the steel base plate. A 150 µL aliquot of each fortified matrix (tissue homogenates, plasma, or DPBS) and DPBS were added to the donor and receiver side of the HTD wells in a Teflon plate, respectively, and the plate was sealed. Samples were incubated at 37 °C and rotated at 300 rpm for 7 hours. After incubation, the seal was removed, and tissue homogenates, plasma, or DPBS and dialysate from each device insert were analyzed by LSC. All protein binding determinations were performed in triplicate.
Dialysis was performed accordingly. The radioactivity concentration of the test article in the donor and receiver samples was determined by LSC (count time 60 min) for the calculation of protein binding. […] After the designated time, aliquots of the individual donor and receiver samples were removed and analyzed by LSC. The remaining sample volume was stored at −20 °C.
Dialysis was performed accordingly.
Protein binding by equilibrium dialysis:1 PercentDrugBound=(Cm-Cd)/Cm×100 2 PercentDrugUnbound=100-PercentBound where: Cd, concentration of test article in dialysate at equilibrium; Cm, Concentration of test article in matrix at equilibrium.
Recovery from equilibrium dialysis:3 Recovery(%)=(Cm×Vm)+(Cd×Vd)/(Co×Vo)×100 where: Cm, Concentration of test article in matrix at equilibrium; Cd, Concentration of test article in dialysate at equilibrium; Co, Original concentration of test article in matrix prior to loading the dialysis device; Vm, Nominal volume of the matrix at equilibrium; Vd, Nominal volume of the dialysate at equilibrium; Vo, Nominal volume of the original matrix added to the dialysis device.
(In equilibrium dialysis free small molecules cross a membrane that holds back macromolecules.)

Series [5] can be described thus: In vitro metabolism in rat hepatocytes. The conditions noted are these: 5 µM A947, 3 hr.
Experimental: as §1
Series [6] in a line: In vitro metabolism in human hepatocytes. The conditions noted are these: human hepatocytes, 5 µM A947, 3 hr.
Experimental: as §1
Where [7] appears, read: IV 4 mg/kg, pooled 0–168-hour bile.
The mark [8] stands for this setting: Sprague Dawley, in vivo, iv, 4 mg/kg.

For `Nc1nnc(-c2ccccc2O)cc1N1CC2CCC(C1)N2c1ccnc(O)c1` [M5], the “%Rad in bile” value in series [1] (setting [7]) worked out at 1.49%. Besides, in series [1] (IV 4 mg/kg), the “%rad in feces” value is on record as 1.86%. The “%rad in urine” value in series [1] (IV 4 mg/kg, pooled urine) worked out at 7.53%. Besides, the “Estimated relative distribution percent of mass spectral abundance” value (shortened to “Estimated relative distribution percent”) in series [2] is on record as 0.1%.

`CC(C)C(C(=O)N1CC(O)CC1C(=O)O)c1cc(N2CCC(CN3CCC(OC4CC(Oc5cc(N6C7CCC6CN(c6cc(-c8ccccc8O)nnc6N)C7)ccn5)C4)CC3)CC2)no1` (stereo not drawn) [M8]: the “%Rad in bile” value in series [1] (setting [8]) worked out at 3.47%.

As to `Nc1nnc(-c2ccccc2O)cc1N1CC2CCC(C1)N2c1ccnc(OC2CC(OC3CCN(C=O)CC3)C2)c1` (stereo not drawn) [M18], in series [1] (setting [8]), the “%Rad in bile” value was 6.31%.

In the case of `Nc1nnc(-c2ccccc2O)cc1N1CC2CCC(C1)N2c1ccnc(OC2CC(OC3CCNCC3)C2)c1` (stereo not drawn) [M10], the “%Rad in bile” value in series [1] (setting [7]) is reported as 4.48%. Also, the “Estimated relative distribution percent” value is recorded as 2.2% in series [3] and 2.6% in series [2].

`Cc1ncsc1-c1ccc(C(C)NC(=O)C2CC(OC3OC(C(=O)O)C(O)C(O)C3O)CN2C(=O)C(c2cc(N3CCC(CN4CCC(OC5CC(Oc6cc(N7C8CCC7CN(c7cc(-c9ccccc9OC9OC(C(=O)O)C(O)C(O)C9O)nnc7N)C8)ccn6)C5)CC4)CC3)no2)C(C)C)cc1` (stereo not drawn) [M17]: the “%rad in urine” value in series [1] (setting [8]) worked out at 21.86%.

On to `CC(=O)CC(c1ccccc1)c1c(O)c2ccccc2oc1=O` (stereo not drawn) [14C-warfarin, warfarin, reference compound], for which the “Percent Unbound” value in series [4] (7 h, 3000 ng/mL) is listed as “approximately 1.5%”. Moreover, the free fraction (fraction unbound) (as a rule, free concentration divided by total concentration) at 7 h, 3000 ng/mL in series [4] (Fu) was 0.015; in series [4] (Percent Unbound), 0.0146.

For the compound `Nc1nnc(-c2ccccc2O)cc1N1CC2CCC(C1)N2c1ccnc(OC2CC(O)C2)c1` (stereo not drawn) [M11], the “%Rad in bile” value in series [1] (setting [7]) is on record as 2.79%. Besides, in series [1] (IV 4 mg/kg), the “%rad in feces” value was determined as 4.34%. Also, the “%rad in urine” value in series [1] (IV 4 mg/kg, pooled urine) was 2.93%. For the same compound, the “Estimated relative distribution percent” value in series [3] and in series [2] was 0.8% each time.

For the compound `Cc1ncsc1-c1ccc(C(C)NC(=O)C2CC(O)CN2C(=O)C(c2cc(N3CCC(C(=O)O)CC3)no2)C(C)C)cc1` (stereo not drawn) [M3], the “Estimated relative distribution percent” value in series [5] is 0.2%; in series [6], 0.04%.

In the case of `CC(C)C(C(=O)O)c1cc(N2CCC(CN3CCC(OC4CC(Oc5cc(N6C7CCC6CN(c6cc(-c8ccccc8O)nnc6N)C7)ccn5)C4)CC3)CC2)no1` (stereo not drawn) [M9], in series [1] (setting [8]), the “%Rad in bile” value worked out at 3.08%.

These data come from article PMC11099041, “Tissue distribution and retention drives efficacy of rapidly clearing VHL-based PROTACs” (Communications Medicine, 2024).
